Data published in patent US20210386756A1, “IMPROVEMENTS FOR PERFORMING AND FACILITATING THE RECOVERY AFTER HEMATOPOIETIC STEM CELL TRANSPLANTATION” (Centro de Investigaciones Energéticas, Medioambientales y …, priority 2018, published 2021).

Columns and labels:
[1] = tested on: hCD34+ hematopoietic progenitors; test: In vitro toxicity of natural estrogens for hematopoietic progenitors (hCD34+ culture, FACS subsets); format: cell-based, human; conditions: for toxicity for hematopoietic progenitor subpopulations: 10 nM to 500 μM, in vitro; for % CD34+/CD38− / % HSC / % MLP / % MPP: four days culture
Procedure: FIG. 9 relates the effect of different concentration of E1, E2, E3 and E4 in human hematopoietic progenitors. Human hematopoietic progenitors were culture in phenol red free media supplemented with 100 ng/mL SCF, 100 ng/ml FLT3L and 100 ng/ml TPO and different concentration of E1, E2, E3 and E4 (from 10 nM to 500 μM). FIG. 9A represents the fold increase of the number of hematopoietic cells after four days in culture. FIG. 9B indicates the total number of primitive hematopoietic progenitors (CD34^+/CD38^−) present in the culture, extrapolated from number of cells and the frequency of this population analyzed by FACS. […] Grey dashed lines point the value of control group, and red dashed lines indicate the initial values at day 0. (Kruskal-Wallis test; P<0.05, data from four independent experiments).
To assess the toxicity of the natural estrogens (E1, E2, E3 and E4) for hematopoietic progenitors, in vitro studies were performed. 5×10^4 hCD34^+ were cultured in a phenol red-free media, X-Vivo 20 (Lonza), in presence of 100 ng/ml SCF, 100 ng/ml FLT3L, 100 ng/ml TPO, 0.5% PS, 1% Glutamax (Thermofisher) and different concentrations of E1, E2, E3 or E4 (from 10 nM to 500 μM). Cell proliferation and immunophenotype of different hematopoietic subsets (CD34^+/CD38^−, HSC [CD34^+/CD38^−/CD45RA^−/CD90^+], Multipotent Progenitors [MPP, CD34^+/CD38^−/CD45RA^−/CD90^−], Multipotent Lymphoid Progenitors [MLP, CD34^+/CD38^−/CD45RA^+] were evaluated at day 0 and four days after culture.

[2] = tested on: human hematopoietic progenitors (CB-CD34+); test: LTC-IC human bone marrow-like co-culture (hMSC + hCD34+) and CFU assay; format: cell-based
Procedure: LTC-IC was established through the co-culture of human bone marrow Mesenchymal Stromal Cells (BM-MSC) and human progenitors (CB-CD34+) to research the positive effects of the estrogens in a human context, such as an in vitro human bone marrow model. LTC-ICs were treated with vehicle or 100 µM of E2 or E4 for a week. […] Cells were plated in methycellulose media with specific hematopoietic cytokines to evaluate the hematopoietic progenitor content. After 14 days, colony forming units (CFU) were counted. Data were normalized to control groups. […] 1×10^5 human mesenchymal stromal cells (hMSC) were seeded in a p6 well and irradiated with 30 Gy next day. The following day, 5×10^4 hCD34^+ were added to the hMSC in LTC-IC media: 75% α-MEM without Phenol Red (Life Technologies), 12.5% Hyclone FBS (GE Healthcare), HS (Life Technologies), β-mercaptoethanol (Life Technologies), 0.5% PS and 1×10^−6 M Hydrocortisone (Sigma-Aldrich). 100 μM of estrogens, dissolved in ethanol, was added to the co-culture for a week, and then the cells were collected and the amount of human hematopoietic progenitors were evaluated in semisolid media supplement with specific hematopoietic cytokines (H4535, StemCell Technologies) plus 8 U/ml hEPO. After fourteen days, colony-forming units (CFU) were evaluated and normalized to the control: […]

[3] = tested on: human cord-blood CD34+ cells; test: Human hematopoietic engraftment in male NSG mice transplanted with 5×10^4 human cord-blood CD34+ cells; format: in vivo, mouse; conditions: male NSG, 5×10^4 CD34+, 2 μg daily for four days, mean +/− SEM
Procedure: Three-four months later, the animals were sacrificed and the human hematopoietic engraftment was analyzed by FACS. Human hematopoietic population was identified as the cells positive for hCD45-APC-Cy7 (Biolegend) and negative for mouse CD45.1-PE (Biolegend). In order to further examine the effect of the estrogen in HSCT, hematopoietic progenitors (hCD34+) and hematopoietic stem cells (hCD34+/hCD38−) were analyzed by FACS inside of the human population in the treated NSG described in Example 1.

human cord blood CD34+ [4] = test: Human engraftment in male NSG mice transplanted with a limited CD34+ cell dose (5×10^3); format: in vivo, mouse
Procedure: FIG. 6A indicates the level of human engraftment, which was raised by E4 administration. […] (Kruskal-Wallis test; P=0.1150, 7-10 mice per group). […] Three-four months later, the animals were sacrificed and the human hematopoietic engraftment was analyzed by FACS. Human hematopoietic population was identified as the cells positive for hCD45-APC-Cy7 (Biolegend) and negative for mouse CD45.1-PE (Biolegend). To determine whether estrogen can improve hematopoietic reconstitution of low number of hematopoietic progenitors, male NSG were irradiated and transplanted with low doses of human cord blood CD34+ (5×103 hCD34+). The human engraftment was analyzed as described in Example 1.

human cord blood CD34+ [5] = test: Human engraftment in female NSG mice transplanted with a limited CD34+ cell dose (5×10^3); format: in vivo, mouse; conditions: low dose 5×10^3 hCD34+, mean +/− SEM
Description: FIG. 7A indicates human hematopoietic reconstitution after four months. […] However, in spite of this presence of endogenous estrogens, the human engraftment in female recipients was increased after E2 and more importantly after E4 treatment. FIG. 7B relates the presence of primitive hematopoietic progenitors was higher in the female mice treated with estrogens, which indicated the quality of the reconstitution. (Kruskal-Wallis test; P<0.05, 4 mice per group). […] Three-four months later, the animals were sacrificed and the human hematopoietic engraftment was analyzed by FACS. Human hematopoietic population was identified as the cells positive for hCD45-APC-Cy7 (Biolegend) and negative for mouse CD45.1-PE (Biolegend). To assess whether estrogen can improve hematopoietic reconstitution in female recipients, female NSG were irradiated and transplanted by a low doses of human cord blood CD34^+ (5×10^3 hCD34^+). The human engraftment was analyzed as described in Example 1. […] However, in spite of this presence of endogenous estrogens, the human engraftment in female recipients was increased after E2 and more importantly after E4 treatment.

[6] = 100 μM for a week, versus vehicle

| Compound | toxicity for hematopoietic progenitor subpopulations [1] | % CD34+/CD38− ([1]; 10 nM) [%] | % HSC ([1]; 10 nM) [%] | % MLP ([1]; 10 nM) [%] | % MPP ([1]; 10 nM) [%] | % CD34+/CD38− ([1]; 100 nM) [%] | % HSC ([1]; 100 nM) [%] | % MLP ([1]; 100 nM) [%] | % MPP ([1]; 100 nM) [%] | % CD34+/CD38− ([1]; 1 μM) [%] | % HSC ([1]; 1 μM) [%] | % MLP ([1]; 1 μM) [%] | % MPP ([1]; 1 μM) [%] | % CD34+/CD38− ([1]; 10 μM) [%] | % HSC ([1]; 10 μM) [%] | % MLP ([1]; 10 μM) [%] | % MPP ([1]; 10 μM) [%] | % HSC ([1]; 100 μM) [%] | % MLP ([1]; 100 μM) [%] | % MPP ([1]; 100 μM) [%] | other results |
| --- | --- | --- | --- | --- | --- | --- | --- | --- | --- | --- | --- | --- | --- | --- | --- | --- | --- | --- | --- | --- | --- |
| C[C@]12CC[C@@H]3c4ccc(O)cc4CC[C@H]3[C@@H]1C[C@@H](O)[C@@H]2O [E3, estriol] | more toxic | 14.77 ± 0.41 | 1.87 ± 0.09 | 4.94 ± 0.70 | 5.75 ± 0.21 | 18.28 ± 1.30 | 2.28 ± 0.03 | 6.46 ± 0.83 | 7.25 ± 0.46 | 14.96 ± 0.57 | 4.94 ± 2.86 | 2.72 ± 2.38 | 5.57 ± 0.12 | 15.89 ± 0.62 | 1.95 ± 0.13 | 5.24 ± 0.65 | 6.18 ± 0.47 | 4.13 | 0.15 | 6.44 | % CD34+/CD38− ([1]; 500 μM): 17.92 ± 2.56%; % HSC ([1]; 500 μM): 3.70 ± 1.51%; % MLP ([1]; 500 μM): 4.73 ± 1.60%; % MPP ([1]; 500 μM): 7.61 ± 2.91% |
| C[C@]12CC[C@@H]3c4ccc(O)cc4CC[C@H]3[C@@H]1CCC2=O [E1, estrone] | more toxic | 12.32 ± 2.72 | 2.19 ± 0.65 | 3.32 ± 1.90 | 4.69 ± 0.88 | 12.91 ± 5.83 | 2.12 ± 0.29 | 4.12 ± 3.56 | 4.37 ± 1.47 | 10.11 ± 2.31 | 2.31 ± 0.45 | 1.80 ± 0.92 | 4.48 ± 1.50 | 10.54 ± 3.34 | 2.25 ± 0.41 | 2.92 ± 2.12 | 3.66 ± 0.89 | 0.67 | 4.46 | 3.86 | % CD34+/CD38− ([1]; 100 μM): 11.02%; % CD34+/CD38− ([1]; 500 μM): 14.80 ± 4.62%; % HSC ([1]; 500 μM): 1.75 ± 0.51%; % MLP ([1]; 500 μM): 4.64 ± 3.09%; % MPP ([1]; 500 μM): 5.87 ± 1.34% |
| C[C@]12CC[C@@H]3c4ccc(O)cc4CC[C@H]3[C@@H]1CC[C@@H]2O [E2, 17β-estradiol] | more toxic | 11.99 ± 0.99 | 1.52 ± 0.24 | 4.23 ± 0.82 | 4.33 ± 0.33 | 10.74 ± 0.29 | 4.25 ± 2.95 | 3.72 ± 0.31 | 3.20 ± 0.76 | 13.43 ± 0.60 | 1.59 ± 0.15 | 3.98 ± 0.14 | 5.62 ± 0.74 | 17.52 ± 2.19 | 1.86 ± 0.12 | 6.79 ± 1.96 | 4.97 ± 0.23 | 4.50 ± 1.91 | 1.76 ± 0.66 | 7.08 ± 1.80 | % CD34+/CD38− ([1]; 100 μM): 14.52 ± 2.88%; % CD34+/CD38− ([1]; 500 μM): 11.93 ± 2.95%; % HSC ([1]; 500 μM): 3.97 ± 2.39%; % MLP ([1]; 500 μM): 1.01 ± 0.24%; % MPP ([1]; 500 μM): 6.96 ± 2.54%; Normalized human CFU ([2]; 100 μM estrogen for a week, CFU after fourteen days, normalized to control, mean +/− SEM): 1.50 +/− 0.21 (n = 6); number of hematopoietic cells in LTC-IC [2, 6]: reduced; total number of primitive hematopoietic progenitors in LTC-IC [2, 6]: did not change; Percentage in the human hematopoietic population: hematopoietic stem cells ([3]; hCD34+/hCD38−): 0.52 +/− 0.07 (n = 13) %; Percentage in the human hematopoietic population: hematopoietic progenitors ([3]; hCD34+): 9.35 +/− 0.86 (n = 13) %; Percentage of human hematopoietic reconstitution ([3]; three-four months later): 46.05 +/− 5.98 (n = 13) %; Percentage in the human hematopoietic population: Lymphoid ([3]; CD19+): 82.26 +/− 2.14 (n = 9) %; Percentage in the human hematopoietic population: Myeloid ([3]; CD33+): 8.42 +/− 0.88 (n = 9) %; proportion of engrafted mice (human engraftment above 0.1%) (human cord blood CD34+ [4]; 5×10^3 CB-CD34+): 70%; change of the proportion of engrafted mice versus vehicle (human cord blood CD34+ [4]; limited HPC dose, engraftment above 0.1%): almost tripled; Percentage of human hematopoietic reconstitution (human cord blood CD34+ [4]; low dose 5×103 hCD34+, mean +/− SEM): 2.12 +/− 1.05 (n = 10) %; Percentage of hematopoietic stem cells (hCD34+/hCD38−) in the human hematopoietic population (human cord blood CD34+ [5]): 0.34 +/− 0.12 (n = 3) %; Percentage of human hematopoietic reconstitution (human cord blood CD34+ [5]): 23.90 +/− 4.65 (n = 3) % |
